Our source for the Activity values is ChEMBL document CHEMBL2429821, “A Casein kinase 1/Checkpoint kinase 1 pyrazolo-pyridine protein kinase inhibitor as novel activator of the p53 pathway” (Bioorg Med Chem Lett, 2013).

Test [1] addresses Insulin-like growth factor 1 receptor (Homo sapiens) (UniProt P08069). The test is described as follows: Inhibition of human IGF-1R assessed as residual activity at 1 uM relative to control.
In test [2] the target is Insulin receptor (Homo sapiens) (UniProt P06213). The test is described as follows: Inhibition of human IR assessed as residual activity at 1 uM relative to control.
In test [3] the target is T1, Serine/threonine-protein kinase D1 (Homo sapiens) (UniProt Q15139).
T1 sequence (whole entry): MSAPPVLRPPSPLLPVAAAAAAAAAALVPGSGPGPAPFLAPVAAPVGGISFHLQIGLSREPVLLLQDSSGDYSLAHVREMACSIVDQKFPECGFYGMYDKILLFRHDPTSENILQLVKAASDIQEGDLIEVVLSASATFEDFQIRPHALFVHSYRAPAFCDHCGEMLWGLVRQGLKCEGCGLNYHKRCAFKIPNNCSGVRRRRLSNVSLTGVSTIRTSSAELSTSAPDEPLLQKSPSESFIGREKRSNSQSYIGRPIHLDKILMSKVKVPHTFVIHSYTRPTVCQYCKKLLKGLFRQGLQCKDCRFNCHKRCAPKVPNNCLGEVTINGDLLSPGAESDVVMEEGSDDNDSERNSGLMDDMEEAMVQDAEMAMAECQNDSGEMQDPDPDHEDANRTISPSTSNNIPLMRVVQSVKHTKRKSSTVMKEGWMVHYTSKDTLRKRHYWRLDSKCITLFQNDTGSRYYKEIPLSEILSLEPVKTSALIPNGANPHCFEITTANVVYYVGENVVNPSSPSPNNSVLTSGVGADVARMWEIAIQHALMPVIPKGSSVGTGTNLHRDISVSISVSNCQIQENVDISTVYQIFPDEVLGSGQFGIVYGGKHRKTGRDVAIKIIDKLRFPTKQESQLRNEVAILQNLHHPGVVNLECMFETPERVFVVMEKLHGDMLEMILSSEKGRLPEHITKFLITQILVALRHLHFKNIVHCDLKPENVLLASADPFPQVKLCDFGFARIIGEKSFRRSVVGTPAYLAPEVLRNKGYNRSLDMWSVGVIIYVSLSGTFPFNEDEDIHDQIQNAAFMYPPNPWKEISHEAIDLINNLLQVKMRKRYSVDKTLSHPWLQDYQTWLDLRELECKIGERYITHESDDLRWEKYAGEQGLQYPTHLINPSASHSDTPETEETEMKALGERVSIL
The experiment in a line: Inhibition of human PKD1 assessed as residual activity at 10 uM relative to control.

The target in test [4] is Calcium/calmodulin-dependent protein kinase type 1 (Homo sapiens) (UniProt Q14012). The experiment in a line: Inhibition of human CAMK1 assessed as residual activity at 10 uM relative to control.
Sequence of Calcium/calmodulin-dependent protein kinase type 1 (Homo sapiens) (Q14012 whole entry, looked up): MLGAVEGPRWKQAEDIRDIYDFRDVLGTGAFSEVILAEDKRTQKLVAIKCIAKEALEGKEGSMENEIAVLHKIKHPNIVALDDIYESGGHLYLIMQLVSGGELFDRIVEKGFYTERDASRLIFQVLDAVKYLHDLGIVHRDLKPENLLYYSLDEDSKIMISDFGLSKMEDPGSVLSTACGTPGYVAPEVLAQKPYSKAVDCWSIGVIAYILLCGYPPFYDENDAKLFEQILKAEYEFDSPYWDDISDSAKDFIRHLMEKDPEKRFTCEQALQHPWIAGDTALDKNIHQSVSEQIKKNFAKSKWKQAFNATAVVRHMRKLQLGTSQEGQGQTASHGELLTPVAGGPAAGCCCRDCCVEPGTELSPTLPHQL
In test [5] the target is Ephrin type-A receptor 2 (Homo sapiens) (UniProt P29317). The test is described as follows: Inhibition of human EPHA2 assessed as residual activity at 1 uM relative to control.
Sequence of Ephrin type-A receptor 2 (Homo sapiens) (P29317 whole entry): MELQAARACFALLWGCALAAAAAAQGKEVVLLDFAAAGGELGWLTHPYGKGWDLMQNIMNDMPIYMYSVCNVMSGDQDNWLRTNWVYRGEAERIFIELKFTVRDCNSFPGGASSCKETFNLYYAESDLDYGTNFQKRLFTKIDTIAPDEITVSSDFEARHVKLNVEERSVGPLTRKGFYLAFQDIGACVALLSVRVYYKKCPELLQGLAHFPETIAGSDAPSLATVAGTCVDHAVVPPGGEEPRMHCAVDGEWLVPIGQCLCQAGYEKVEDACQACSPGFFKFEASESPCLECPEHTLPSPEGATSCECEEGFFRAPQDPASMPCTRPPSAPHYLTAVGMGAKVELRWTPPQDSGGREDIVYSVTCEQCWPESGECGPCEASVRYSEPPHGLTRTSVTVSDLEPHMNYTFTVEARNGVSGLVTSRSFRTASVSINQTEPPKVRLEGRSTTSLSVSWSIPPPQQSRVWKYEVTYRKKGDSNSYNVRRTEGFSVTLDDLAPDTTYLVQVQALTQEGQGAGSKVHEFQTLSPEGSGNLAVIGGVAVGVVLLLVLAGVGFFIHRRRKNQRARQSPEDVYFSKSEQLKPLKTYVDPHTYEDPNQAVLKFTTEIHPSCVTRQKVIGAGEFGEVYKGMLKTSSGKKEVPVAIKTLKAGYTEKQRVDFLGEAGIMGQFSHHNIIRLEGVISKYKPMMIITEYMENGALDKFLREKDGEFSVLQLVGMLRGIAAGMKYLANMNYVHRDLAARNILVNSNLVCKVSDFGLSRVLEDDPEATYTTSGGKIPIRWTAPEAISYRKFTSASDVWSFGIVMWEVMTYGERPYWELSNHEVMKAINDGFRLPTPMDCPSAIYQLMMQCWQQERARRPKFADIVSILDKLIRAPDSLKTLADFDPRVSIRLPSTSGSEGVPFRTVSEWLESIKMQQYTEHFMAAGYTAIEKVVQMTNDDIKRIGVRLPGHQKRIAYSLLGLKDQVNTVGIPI
For test [6], the target named is T2, Serine/threonine-protein kinase Chk1 (Homo sapiens) (UniProt O14757).
T2 sequence (whole entry): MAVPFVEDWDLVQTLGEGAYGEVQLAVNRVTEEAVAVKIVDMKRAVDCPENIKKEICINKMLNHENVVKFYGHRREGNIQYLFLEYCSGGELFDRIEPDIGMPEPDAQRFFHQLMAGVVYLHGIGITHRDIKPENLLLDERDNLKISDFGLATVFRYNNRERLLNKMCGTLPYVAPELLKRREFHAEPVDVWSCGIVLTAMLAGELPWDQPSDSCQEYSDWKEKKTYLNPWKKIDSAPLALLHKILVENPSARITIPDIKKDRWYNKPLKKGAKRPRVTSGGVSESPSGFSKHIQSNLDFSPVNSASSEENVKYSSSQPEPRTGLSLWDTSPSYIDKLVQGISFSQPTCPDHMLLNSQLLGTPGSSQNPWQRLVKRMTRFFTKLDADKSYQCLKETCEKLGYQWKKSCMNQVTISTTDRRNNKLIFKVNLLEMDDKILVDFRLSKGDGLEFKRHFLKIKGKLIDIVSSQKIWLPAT
The test is described as follows: Inhibition of human CHK1 assessed as residual activity at 1 uM relative to control.

The target of test [7] is Myosin light chain kinase, smooth muscle (Homo sapiens) (UniProt Q15746). The test is described as follows: Inhibition of human smMLCK assessed as residual activity at 1 uM relative to control.
Sequence of Myosin light chain kinase, smooth muscle (Homo sapiens) (Q15746 whole entry): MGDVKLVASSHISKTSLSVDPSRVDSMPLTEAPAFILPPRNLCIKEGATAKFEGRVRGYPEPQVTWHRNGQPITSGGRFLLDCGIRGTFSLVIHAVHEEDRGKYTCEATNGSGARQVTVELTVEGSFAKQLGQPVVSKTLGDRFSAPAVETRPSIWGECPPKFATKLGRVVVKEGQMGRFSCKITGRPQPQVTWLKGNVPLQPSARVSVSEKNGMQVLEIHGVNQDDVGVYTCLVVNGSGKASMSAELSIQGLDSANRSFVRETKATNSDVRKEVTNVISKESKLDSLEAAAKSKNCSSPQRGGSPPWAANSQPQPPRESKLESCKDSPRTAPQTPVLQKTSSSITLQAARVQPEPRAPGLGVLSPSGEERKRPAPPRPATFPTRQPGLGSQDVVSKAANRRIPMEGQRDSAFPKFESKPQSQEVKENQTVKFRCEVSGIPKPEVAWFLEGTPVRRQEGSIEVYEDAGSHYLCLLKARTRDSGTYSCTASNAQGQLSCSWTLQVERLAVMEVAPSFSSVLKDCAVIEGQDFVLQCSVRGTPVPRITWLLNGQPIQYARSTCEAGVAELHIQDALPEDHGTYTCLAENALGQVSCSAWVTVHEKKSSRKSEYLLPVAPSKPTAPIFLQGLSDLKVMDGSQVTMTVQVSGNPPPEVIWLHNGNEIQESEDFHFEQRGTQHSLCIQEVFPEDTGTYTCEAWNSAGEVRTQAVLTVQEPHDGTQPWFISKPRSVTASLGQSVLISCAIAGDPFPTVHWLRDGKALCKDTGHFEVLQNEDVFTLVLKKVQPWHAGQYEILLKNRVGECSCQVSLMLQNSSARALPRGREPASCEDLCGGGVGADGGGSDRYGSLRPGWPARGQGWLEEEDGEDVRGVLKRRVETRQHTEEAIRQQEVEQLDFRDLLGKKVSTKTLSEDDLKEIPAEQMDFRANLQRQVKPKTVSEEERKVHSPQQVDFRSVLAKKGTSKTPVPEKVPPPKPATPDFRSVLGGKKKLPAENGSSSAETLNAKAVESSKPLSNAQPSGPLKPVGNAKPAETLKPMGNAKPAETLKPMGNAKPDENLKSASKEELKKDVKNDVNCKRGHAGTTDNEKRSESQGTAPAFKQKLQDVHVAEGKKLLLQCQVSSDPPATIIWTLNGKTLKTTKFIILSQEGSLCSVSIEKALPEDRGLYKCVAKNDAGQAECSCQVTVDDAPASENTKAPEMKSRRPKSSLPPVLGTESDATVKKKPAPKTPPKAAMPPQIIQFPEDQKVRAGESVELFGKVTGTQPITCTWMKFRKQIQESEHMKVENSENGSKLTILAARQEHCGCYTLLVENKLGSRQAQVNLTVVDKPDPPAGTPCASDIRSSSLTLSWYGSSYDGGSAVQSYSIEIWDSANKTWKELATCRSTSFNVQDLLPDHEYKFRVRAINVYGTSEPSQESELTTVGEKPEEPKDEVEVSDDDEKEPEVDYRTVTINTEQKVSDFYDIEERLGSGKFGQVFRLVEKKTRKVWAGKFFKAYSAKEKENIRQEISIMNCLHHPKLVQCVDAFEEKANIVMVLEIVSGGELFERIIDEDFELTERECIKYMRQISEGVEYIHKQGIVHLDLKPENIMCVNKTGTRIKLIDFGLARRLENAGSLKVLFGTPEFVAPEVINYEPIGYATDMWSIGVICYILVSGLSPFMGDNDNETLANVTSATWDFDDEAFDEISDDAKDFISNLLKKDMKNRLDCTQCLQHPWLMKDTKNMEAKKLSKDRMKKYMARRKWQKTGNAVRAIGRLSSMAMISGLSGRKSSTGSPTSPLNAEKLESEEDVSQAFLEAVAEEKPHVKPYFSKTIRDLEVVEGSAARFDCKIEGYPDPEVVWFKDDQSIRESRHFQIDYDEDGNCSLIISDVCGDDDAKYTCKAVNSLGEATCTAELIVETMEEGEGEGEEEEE
For test [8], the target named is Ribosomal protein S6 kinase alpha-3 (Homo sapiens) (UniProt P51812). The experiment in a line: Inhibition of human RSK2 assessed as residual activity at 1 uM relative to control.
Sequence of Ribosomal protein S6 kinase alpha-3 (Homo sapiens) (P51812 whole entry): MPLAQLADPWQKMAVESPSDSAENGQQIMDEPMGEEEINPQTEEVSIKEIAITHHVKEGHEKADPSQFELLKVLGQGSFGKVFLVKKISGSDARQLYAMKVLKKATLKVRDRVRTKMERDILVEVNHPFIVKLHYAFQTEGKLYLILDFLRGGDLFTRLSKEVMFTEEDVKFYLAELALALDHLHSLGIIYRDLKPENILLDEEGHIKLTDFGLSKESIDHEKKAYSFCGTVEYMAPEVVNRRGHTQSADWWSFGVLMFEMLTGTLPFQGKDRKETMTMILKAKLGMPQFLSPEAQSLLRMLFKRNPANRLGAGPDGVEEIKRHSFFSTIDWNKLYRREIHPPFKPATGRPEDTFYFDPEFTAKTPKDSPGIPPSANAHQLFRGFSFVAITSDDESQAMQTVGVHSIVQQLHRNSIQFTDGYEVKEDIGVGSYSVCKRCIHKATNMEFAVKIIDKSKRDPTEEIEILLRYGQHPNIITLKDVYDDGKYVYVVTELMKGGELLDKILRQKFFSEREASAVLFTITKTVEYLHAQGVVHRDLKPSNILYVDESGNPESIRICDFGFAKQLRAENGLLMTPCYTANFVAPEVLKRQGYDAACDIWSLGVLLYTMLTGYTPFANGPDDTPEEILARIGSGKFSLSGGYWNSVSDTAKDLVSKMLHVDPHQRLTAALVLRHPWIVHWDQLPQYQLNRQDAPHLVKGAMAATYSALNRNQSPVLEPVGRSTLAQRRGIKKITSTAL
For test [9], the target named is T3, Serine/threonine-protein kinase Sgk1 (Homo sapiens) (UniProt O00141).
T3 sequence (whole entry): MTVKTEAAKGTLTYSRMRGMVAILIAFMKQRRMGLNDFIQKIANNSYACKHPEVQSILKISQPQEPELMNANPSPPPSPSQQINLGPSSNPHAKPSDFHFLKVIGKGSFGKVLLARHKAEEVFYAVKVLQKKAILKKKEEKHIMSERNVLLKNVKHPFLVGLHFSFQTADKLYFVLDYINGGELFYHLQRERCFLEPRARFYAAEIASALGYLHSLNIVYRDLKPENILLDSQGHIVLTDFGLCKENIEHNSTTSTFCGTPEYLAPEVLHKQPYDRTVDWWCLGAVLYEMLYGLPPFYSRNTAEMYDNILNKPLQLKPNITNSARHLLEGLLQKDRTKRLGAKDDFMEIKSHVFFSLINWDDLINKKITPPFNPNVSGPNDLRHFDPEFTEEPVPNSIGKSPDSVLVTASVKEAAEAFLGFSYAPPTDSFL
The experiment in a line: Inhibition of human SGK1 assessed as residual activity at 10 uM relative to control.

As to `CC(=O)Nc1cccc(-c2cnc3[nH]nc(C)c3c2)c1`, the Activity in test [1] is 70.8%; in test [2] it was 106%; in [3], 44.3%; in test [4], 68.4%; in [5], 101%; in test [6], 31.5%. The Activity in [7] was 72.9%; in test [8] it was 93.8%; in test [9], 61.9%.
For the compound `CCCC(=O)Nc1n[nH]c2ncc(-c3cccnc3)cc12`, the Activity in [1] was determined as 88%; in test [2] it was 101%; in test [3], 99%; in test [4] it was 83%; in test [5], 86%; in test [6], 92%. Also, the Activity was 87% in test [7], 92% in [8] and 82% in test [9].
As to `CC(=O)Nc1nccc(-c2c(-c3ccccc3)noc2C)n1`, the Activity in test [1] is 82.7%; in test [2], 101%; in [3], 75.3%; in test [4] it was 71%; in test [5] it was 91.2%; in test [6] it was 80.6%. For the same compound, the Activity in test [7] was 80.4%; in test [8], 78.7%; in test [9] it was 21.4%.
